Among the data in patent US20240382651A1, “BUPIVACAINE-COLLAGEN DRUG DELIVERY IMPLANT AND METHODS OF MAKING AND USING THEREOF” (INNOCOLL PHARMACEUTICALS LIMITED, priority 2021, published 2024) are Genotoxicity values, retold here.

This data set can be described thus: Genotoxicity studies of bupivacaine HCl (4 in vitro, 2 in vivo). The conditions noted are these: 4 in vitro studies and 2 in vivo studies. From the text: The distribution, metabolism, and excretion of bupivacaine across species is characterized in the literature including data showing that, following absorption, bupivacaine is rapidly and readily distributed to tissues, with the highest concentrations in highly perfused tissues. In general, the metabolic profile of bupivacaine is similar across species although quantitatively different, with no novel metabolite identified in humans (Goehl, et al., 1973, Carson 2000). The excretion of bupivacaine in monkeys and humans is predominantly in the urine; in rats, excretion in urine and feces is generally similar; and in dogs, only small amounts of excretion of bupivacaine in the urine have been reported.

Structures can show the parent of a compound that is named as a salt.

Turning to `CCCCN1CCCCC1C(=O)Nc1c(C)cccc1C` (stereo not shown) [bupivacaine HCl], the Genotoxicity entry was “no safety concerns identified”.
